Measured values as given in patent US10100032B2, “Crystalline forms of 3-(4-amino-1-oxo-1,3 dihydro-isoindol-2-yl)-piperidine-2,6-dione” (AMPLIO PHARMA, LLC, priority 2011, dated 2018).

Columns and labels:
[1] = Water slurry analysis of lenalidomide cocrystals; type: physicochemical; design: key: If the cocrystal was intact, the cocrystal could be described as less soluble than the stable 3-(4-amino-1-oxo-1,3 dihydro-isoindol-2-yl)-piperidine-2,6-dione form in water (characterized as “stable”); the cocrystal transformation indicates that under those conditions the cocrystal is more soluble than the stable form of the 3-(4-amino-1-oxo-1,3 dihydro-isoindol-2-yl)-piperidine-2,6-dione in water (characterized as “transformed”); details: slurry of ~8 to 10 mg of cocrystal in 1 mL of pure water, stirred for 24 hours, solid isolated by filtration and analyzed by XRPD
Method: The solubility of the cocrystals obtained in Examples 1, 2, 3, 4, 5, 6, 7, and 8 were compared to the stable form of the API in pure water by creating a slurry of ˜8 to 10 mg of cocrystal in 1 mL of water. The resulting slurry was stirred for 24 hours. The solid was isolated by filtration and analyzed by XRPD.

[2] = Stability testing of lenalidomide cocrystals; type: physicochemical; design: key: the solids remained as the starting cocrystal material, indicating that they are stable under these conditions (“stable”); transformed partially or completely into a different crystalline material, indicating that they are not stable under these conditions (“not stable”); details: stored at 40 degrees Celsius and 75% relative humidity (saturated NaCl) for 14 days, XRPD

Water slurry result [1] | Stability test result [2] | Structure (SMILES)
transformed | not stable | Nc1cccc2c1CN(C1CCC(=O)NC1=O)C2=O (centres unmarked) [malonic acid cocrystal of lenalidomide, 3-(4-amino-1-oxo-1,3-dihydroisoindol-2-yl)piperidine-2,6-dione-malonic acid cocrystal]
transformed | stable | Nc1cccc2c1CN(C1CCC(=O)NC1=O)C2=O (centres unmarked) [urea cocrystal of lenalidomide, 3-(4-amino-1-oxo-1,3-dihydroisoindo-2-yl)piperidine-2,6-dione-urea cocrystal]

More lines, now with the values behind:

Structure (SMILES) | Water slurry result [1] | Stability test result [2]
Nc1cccc2c1CN(C1CCC(=O)NC1=O)C2=O [L-tartaric acid cocrystal of lenalidomide] [3-(4-amino-1-oxo-1,3-dihydroisoindol-2-yl)piperidine-2,6-dione-L-tartaric acid cocrystal] | transformed | not stable
Nc1cccc2c1CN(C1CCC(=O)NC1=O)C2=O (centres unmarked) [propyl gallate cocrystal of lenalidomide, 3-(4-amino-1-oxo-1,3-dihydroisoindol-2-yl)piperidine-2,6-dione-propylgallate cocrystal] | transformed | not stable
Nc1cccc2c1CN(C1CCC(=O)NC1=O)C2=O (centres unmarked) [ammonium chloride cocrystal of lenalidomide] [3-(4-amino-1-oxo-1,3-dihydroisoindol-2-yl)piperidine-2,6-dione-ammonium chloride cocrystal] | transformed | stable
Nc1cccc2c1CN(C1CCC(=O)NC1=O)C2=O (centres unmarked) [oxallic acid cocrystal of lenalidomide, 3-(4-amino-1-oxo-1,3-dihydroisoindol-2-yl)piperidine-2,6-dione and oxalic acid cocrystal] | transformed | stable
Nc1cccc2c1CN(C1CCC(=O)NC1=O)C2=O (centres unmarked) [gallic acid cocrystal of lenalidomide, 3-(4-amino-1-oxo-1,3-dihydroisoindol-2-yl)piperidine-2,6-dione-gallic acid cocrystal] | transformed | stable
